In ChEMBL document CHEMBL3244129, “Quinolone antimicrobial agents. 1. Versatile new synthesis of 1-alkyl-1,4-dihydro-4-oxo-3-quinolinecarboxylic acids” (1978):
Values after ≈ are worked out from the molar mass of the structure shown.

Experiments:
[1] = system: Salmonella gallinarum; assay: Antimicrobial activity against Salmonella gallinarum 9184 assessed as growth inhibition by agar dilution-streak method
[2] = system: Staphylococcus aureus; assay: Antimicrobial activity against Staphylococcus aureus ATCC […] assessed as growth inhibition by agar dilution-streak method; format: functional
[3] = system: Klebsiella pneumoniae; assay: Antimicrobial activity against Klebsiella pneumoniae 10031 assessed as growth inhibition by agar dilution-streak method; format: functional
[4] = system: Mycolicibacterium smegmatis; assay: Antimicrobial activity against Mycobacterium smegmatis 607 assessed as growth inhibition by agar dilution-streak method; format: functional
[5] = system: Escherichia coli; assay: Antimicrobial activity against Escherichia coli 9637 assessed as growth inhibition by agar dilution-streak method; format: functional
[6] = system: Candida albicans; assay: Antimicrobial activity against Candida albicans 10231 assessed as growth inhibition by agar dilution-streak method; format: functional

Row | Compound | MIC [1] [µg/mL] | MIC [2] [µg/mL] | MIC [3] [µg/mL] | MIC [4] [µg/mL] | MIC [5] [µg/mL] | MIC [6] [µg/mL]
1 | CCn1cc(C(=O)O)c(=O)c2ccc(C)cc21 | 1.25 (≈ 5.41 µM) | 40 (≈ 173 µM) | 10 (≈ 43.2 µM) | > 100 | 2.5 (≈ 10.8 µM) | > 100
2 | CCn1cc(C(=O)O)c(=O)c2cc(C)ccc21 | 20 (≈ 86.5 µM) | 40 (≈ 173 µM) | > 100 | > 100 | 20 (≈ 86.5 µM) | > 100
3 | CCn1cc(C(=O)O)c(=O)c2cccc(C)c21 | > 100 | > 100 | > 100 | > 100 | > 100 | > 100
4 | CCn1cc(C(=O)O)c(=O)c2cc(Cl)ccc21 | 20 (≈ 79.5 µM) | 100 (≈ 397 µM) | 10 (≈ 39.7 µM) | 100 (≈ 397 µM) | 20 (≈ 79.5 µM) | > 40
5 | CCn1c(O)c(C(=O)O)c(=O)c2cc3c(cc21)OCO3 | > 100 | > 100 | > 100 | > 100 | > 100 | > 100
6 | CCn1c(C)c(C(=O)O)c(=O)c2cc3c(cc21)OCO3 | > 100 | > 100 | > 100 | > 100 | > 100 | > 100
7 | CCn1cc(C(=O)O)c(=O)c2cc3c(cc21)OCO3 [OXOLINIC ACID] | 1.25 (≈ 4.79 µM) | 5 (≈ 19.1 µM) | < 0.625 | > 40 | 1.25 (≈ 4.79 µM) | > 40
